According to patent publication US8017612B2, “Piperazine compound and use thereof as a HCV polymerase inhibitor” (priority 2006, dated 2011):
pIC50: −log10 of the molar value.

Key:
[1] = molecular target: T1, HCV polymerase (NS5B) type 1b (Hepatitis C virus genotype 1b, UniProt P26663); experiment: Assay of enzyme (HCV polymerase) inhibitory activity, type 1b enzyme; format: biochemical, HCV BK strain (type 1b); settings: HCV polymerase inhibitory activity (IC50), 1b, type 1b enzyme 0.5 μg/ml, 25° C., 60 min
T1 construct: a region encoding NS5B (J Virol 1991 March, 65(3), 1105-13, 544 amino acids after deletion of 47 amino acids on the C-terminal); 6xHis (C); made in house; host or cells: Escherichia coli
Summary of the method: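 Rxn: NS5B 1b (BK, ΔC47, His6) 0.5 μg/ml; substrate RNA 5 μg/ml; ATP/GTP/CTP 50 μM, UTP 2 μM + [5,6-3H]UTP; 20 mM Tris pH 7.5, 5 mM MgCl2, 50 mM NaCl, 1 mM EDTA/DTT. 25 °C, 60 min. Stop with TCA/pyrophosphate, filter, scintillation count; IC50 vs. untreated.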

[2] = molecular target: T2, HCV polymerase (NS5B) type 1a (Hepatitis C virus genotype 1a, UniProt P26664); experiment: Assay of enzyme (HCV polymerase) inhibitory activity, type 1a enzyme; format: biochemical, HCV type 1a (cloned from the blood of patients); settings: HCV polymerase inhibitory activity (IC50), 1a, type 1a enzyme 1.5 μg/ml, 25° C., 60 min
T2 construct: made in house; host or cells: Escherichia coli (by the 'similar method' of the 1b enzyme)
Summary of the method: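 NS5B Δ47 C-term His6 (type 1a, 1.5 μg/ml); substrate RNA 5 μg/ml; ATP/GTP/CTP 50 μM, UTP 2 μM + [5,6-3H]UTP; Tris pH 7.5, MgCl2 5 mM; 25° C, 60 min. TCA/pyrophosphate stop, GF/B filter, scintillation. IC50 vs no-compound control.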

Row | SMILES | pIC50 [1] | pIC50 [2]
1 | CCC(F)(F)c1ccc(CNC(=O)[C@H]2CN(C(C)=O)CCN2S(=O)(=O)c2ccc(OC(F)(F)F)cc2)cc1 [Example 459, (R)-4-acetyl-1-(4-trifluoromethoxy-benzenesulfonyl)-piperazine-2-carboxylic acid 4-(1,1-difluoro-propyl)-benzylamide] | > 7.00 | > 7.00
2 | CCCc1ccc(CNC(=O)[C@H]2CN(C(=O)Cn3ncnn3)CCN2S(=O)(=O)c2ccc(OC(F)(F)F)cc2)cc1 [Example 460, (R)-4-(2-tetrazol-2-yl-acetyl)-1-(4-trifluoromethoxy-benzenesulfonyl)-piperazine-2-carboxylic acid 4-propyl-benzylamide] | > 7.00 | > 7.00
3 | CCCc1ccc(CNC(=O)[C@H]2CN(C(=O)Cn3cnnn3)CCN2S(=O)(=O)c2ccc(OC(F)(F)F)cc2)cc1 [Example 461, (R)-4-(2-tetrazol-1-yl-acetyl)-1-(4-trifluoromethoxy-benzenesulfonyl)-piperazine-2-carboxylic acid 4-propyl-benzylamide] | > 7.00 | > 7.00
4 | CCCc1ccc(CNC(=O)[C@H]2CN(C(=O)Cn3ccnc3)CCN2S(=O)(=O)c2ccc(OC(F)(F)F)cc2)cc1 [Example 462, (R)-4-(2-imidazol-1-yl-acetyl)-1-(4-trifluoromethoxy-benzenesulfonyl)-piperazine-2-carboxylic acid 4-propyl-benzylamide] | > 7.00 | > 7.00
5 | CCCc1ccc(CNC(=O)[C@H]2CN(C(=O)N(C)c3ccncc3)CCN2S(=O)(=O)c2ccc(OC(F)(F)F)cc2)cc1 [Example 463, (R)-4-(4-trifluoromethoxy-benzenesulfonyl)-piperazine-1,3-dicarboxylic acid 1-(methyl-pyridin-4-yl-amide) 3-(4-propyl-benzylamide)] | < 6.00 | < 6.00
6 | CCC(F)(F)c1ccc(CNC(=O)[C@H]2CN(C(=O)Cn3cnnn3)CCN2S(=O)(=O)c2ccc(OC(F)(F)F)cc2)cc1 [Example 464, (R)-4-(2-tetrazol-1-yl-acetyl)-1-(4-trifluoromethoxy-benzenesulfonyl)-piperazine-2-carboxylic acid 4-(1,1-difluoro-propyl)-benzylamide] | > 7.00 | > 7.00
7 | CCCc1ccc(CNC(=O)[C@H]2CN(C(=O)Cn3nnc(CC(=O)O)n3)CCN2S(=O)(=O)c2ccc(OC(F)(F)F)cc2)cc1 [Example 465, (2-{2-oxo-2-[(R)-3-(4-propyl-benzylcarbamoyl)-4-(4-trifluoromethoxy-benzenesulfonyl)-piperazin-1-yl]-ethyl}-2H-tetrazol-5-yl)-acetic acid] | > 7.00 | > 7.00
8 | CCOC(=O)Cc1nnn(CC(=O)N2CCN(S(=O)(=O)c3ccc(OC(F)(F)F)cc3)[C@@H](C(=O)NCc3ccc(C(F)(F)CC)cc3)C2)n1 [Example 466, (2-{2-[(R)-3-[4-(1,1-difluoro-propyl)-benzylcarbamoyl]-4-(4-trifluoromethoxy-benzenesulfonyl)-piperazin-1-yl]-2-oxo-ethyl}-2H-tetrazol-5-yl)-acetic acid ethyl ester] | > 7.00 | > 7.00
9 | CCC(F)(F)c1ccc(CNC(=O)[C@H]2CN(C(=O)Cn3nnnc3C)CCN2S(=O)(=O)c2ccc(OC(F)(F)F)cc2)cc1 [Example 467, (R)-4-[2-(5-methyl-tetrazol-1-yl)-acetyl]-1-(4-trifluoromethoxy-benzenesulfonyl)-piperazine-2-carboxylic acid 4-(1,1-difluoro-propyl)-benzylamide] | 6.00 to 7.00 | > 7.00
10 | CCC(F)(F)c1ccc(CNC(=O)[C@H]2CN(C(=O)Cn3nnc(C)n3)CCN2S(=O)(=O)c2ccc(OC(F)(F)F)cc2)cc1 [Example 468, (R)-4-[2-(5-methyl-tetrazol-2-yl)-acetyl]-1-(4-trifluoromethoxy-benzenesulfonyl)-piperazine-2-carboxylic acid 4-(1,1-difluoro-propyl)-benzylamide] | > 7.00 | > 7.00
11 | CC(=O)N1CCN(S(=O)(=O)c2ccc(Br)c(F)c2)[C@@H](C(=O)NCc2ccc(C(C)C)cc2)C1 [Example 469, (R)-4-acetyl-1-(4-bromo-3-fluoro-benzenesulfonyl)-piperazine-2-carboxylic acid 4-isopropyl-benzylamide] | 6.00 to 7.00 | 6.00 to 7.00
12 | CCCc1ccc(CNC(=O)[C@H]2CN(C(=O)Nc3nc(CC(=O)OCC)cs3)CCN2S(=O)(=O)c2ccc(OC(F)(F)F)cc2)cc1 [Example 470, (2-{[(R)-3-(4-propyl-benzylcarbamoyl)-4-(4-trifluoromethoxy-benzenesulfonyl)-piperazine-1-carbonyl]-amino}-thiazol-4-yl)-acetic acid ethyl ester] | 6.00 to 7.00 | 6.00 to 7.00
13 | CC(C)c1ccc(CNC(=O)[C@H]2CN(c3cnc(N)cn3)CCN2S(=O)(=O)c2ccc(C(F)(F)F)cc2)cc1 [Example 471, (R)-5′-amino-4-(4-trifluoromethyl-benzenesulfonyl)-3,4,5,6-tetrahydro-2H-[1,2′]bipyrazinyl-3-carboxylic acid 4-isopropyl-benzylamide] | > 7.00 | 6.00 to 7.00
14 | CCCc1ccc(CNC(=O)[C@H]2CN(c3cnccn3)CCN2S(=O)(=O)c2ccc(OC(F)(F)F)cc2)cc1 [Example 472, (R)-4-(4-trifluoromethoxy-benzenesulfonyl)-3,4,5,6-tetrahydro-2H-[1,2′]bipyrazinyl-3-carboxylic acid 4-propyl-benzylamide] | > 7.00 | > 7.00
15 | COCc1ccc(CNC(=O)[C@H]2CN(c3cnc(C(=O)O)cn3)CCN2S(=O)(=O)c2ccc(OC(F)(F)F)cc2)cc1 [Example 473, (R)-3-(4-methoxymethyl-benzylcarbamoyl)-4-(4-trifluoromethoxy-benzenesulfonyl)-3,4,5,6-tetrahydro-2H-[1,2′]bipyrazinyl-5′-carboxylic acid] | > 7.00 | > 7.00
16 | CCCc1ccc(CNC(=O)[C@H]2CN(c3cnc(C(=O)O)cn3)CCN2S(=O)(=O)c2ccc(OC(F)(F)F)cc2)c(Cl)c1 [Example 474, (R)-3-(2-chloro-4-propyl-benzylcarbamoyl)-4-(4-trifluoromethoxy-benzenesulfonyl)-3,4,5,6-tetrahydro-2H-[1,2′]bipyrazinyl-5′-carboxylic acid] | > 7.00 | > 7.00
17 | CCCc1ccc(CNC(=O)[C@H]2CN(C(=O)Nc3nc(CC(=O)N4CCOCC4)cs3)CCN2S(=O)(=O)c2ccc(OC(F)(F)F)cc2)cc1 [Example 475, (R)-4-(4-trifluoromethoxy-benzenesulfonyl)-piperazine-1,3-dicarboxylic acid 1-{[4-(2-morpholin-4-yl-2-oxo-ethyl)-thiazol-2-yl]-amide} 3-(4-propyl-benzylamide)] | > 7.00 | 6.00 to 7.00
18 | CCCc1ccc(CNC(=O)[C@H]2CN(C(=O)Nc3nc(CCO)cs3)CCN2S(=O)(=O)c2ccc(OC(F)(F)F)cc2)cc1 [Example 476, (R)-4-(4-trifluoromethoxy-benzenesulfonyl)-piperazine-1,3-dicarboxylic acid 1-{[4-(2-hydroxy-ethyl)-thiazol-2-yl]-amide} 3-(4-propyl-benzylamide)] | 6.00 to 7.00 | 6.00 to 7.00
